Reference: PubChem BioAssay (NCI)
“And” between values parts separate entries of the source, which are not always exact repeats. Equal entries are not always repeated.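 Exposure lasted 48 hours, with cells grown in 96-well plates and compounds tested at five concentrations. Abbreviation: GI50, concentration required for 50% inhibition of growth. The concentration for full growth arrest is given as TGI.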

Experiments:
Test in all cases: NCI tumour cell line growth inhibition, 48 h
[1] = system: A498 renal
[2] = system: ACHN renal
[3] = system: HL-60(TB) leukemia
[4] = system: KM12 colon
[5] = system: M14 melanoma
[6] = system: OVCAR-5 ovarian
[7] = system: RXF 393 renal
[8] = system: SF-539 CNS
[9] = system: SK-MEL-5 melanoma
[10] = system: RPMI-8226 leukemia

| Structure (SMILES) | GI50 [1] [µM] | TGI [1] [µM] | GI50 [2] [µM] | TGI [2] | GI50 [3] [µM] | TGI [3] [µM] | GI50 [4] [µM] | TGI [4] [µM] | GI50 [5] [µM] | TGI [5] | GI50 [6] [µM] | TGI [6] [µM] | GI50 [7] [µM] | TGI [7] | GI50 [8] [µM] | TGI [8] | GI50 [9] [µM] | TGI [9] | GI50 [10] [µM] | TGI [10] [µM] |
| --- | --- | --- | --- | --- | --- | --- | --- | --- | --- | --- | --- | --- | --- | --- | --- | --- | --- | --- | --- | --- |
| O=CC(OC(=O)c1ccccc1)C(OC(=O)c1ccccc1)C(COC(c1ccccc1)(c1ccccc1)c1ccccc1)OC(=O)c1ccccc1 (stereo not given) | 15.5 | 29.7 | 11.4 | 24 µM | 3.25 | 20.7 | 14.3 | 31 | 14 | 30.3 µM | 21.6 | 43.9 | 4.11 | 21.1 µM | 5.28 | 19.4 µM | 15.4 | 30.3 µM |  |  |
| CCN(C(=O)N1CCN(c2cc3c(cc2F)c(=O)c(C(=O)O)cn3C2CC2)CC1)c1nc(-c2ccccc2)cs1 |  |  | 1.69 | 9.47 µM | 1.59 | 4.35 | 2.94 | > 100 | 3.16 | > 100 µM | 3.27 | > 100 | 2.52 | 8.88 µM | 2.48 | 7.51 µM | 3.63 | 55.6 µM | 2.41 | 8.75 |
| CCN(CC)CCNc1c2ccccc2nc2cccc([N+](=O)[O-])c12 |  | 0.014 |  | 0.0184 µM and 0.0468 µM | 0.0104 | 0.175 |  |  |  | 0.0188 µM and 0.0245 µM |  | 0.0302 |  | 0.0351 µM and 0.0112 µM | 0.107 | 0.0472 µM and 0.251 µM | 0.0112 | 0.0173 µM and 0.0258 µM |  |  |
| CC(=O)OCCOCn1c2ccccc2c2c3c(c4c5ccccc5n(COCCOC(C)=O)c4c21)C(=O)N(Cc1ccccc1)C3=O |  | > 100 |  | > 100 µM |  | > 100 |  |  |  | > 100 µM |  | > 100 |  | > 100 µM |  | > 100 µM |  | > 100 µM |  | > 100 |
| C#CCN(N=O)C(=O)NC(CCCCNC(=O)OCc1ccccc1)C(=O)OCc1ccccc1 (stereo not given) |  | > 100 |  | > 100 µM |  | 37.6 |  | > 100 |  | 56.6 µM |  | 84 |  | > 100 µM |  |  |  |  |  | 45.9 |
| Cc1ccc2nc(NC(=O)C(=O)C(C(=O)c3ccc4ccccc4c3)C3OC(=O)c4ccccc43)sc2c1 (stereo not given) |  | 21.3 |  | 46.1 µM |  |  |  | 37.4 |  | 28.2 µM |  | 23.9 |  | 8.79 µM |  | 9.21 µM |  | 22.6 µM |  | > 100 |
| CC(=O)NNc1nc(C)c(C(=O)NNC(=O)C(=O)Nc2ccc(Cl)c([N+](=O)[O-])c2)s1 |  |  |  | > 100 µM |  | > 100 |  | > 100 |  | > 100 µM |  | > 100 |  |  |  | > 100 µM |  | > 100 µM |  | > 100 |
| C=C1CCC2CC1C(C(=O)c1c[nH]c3ccccc13)=NC2(C)C (stereo not given) |  | > 100 |  | > 100 µM |  | > 100 |  | > 100 |  | > 100 µM |  | > 100 |  |  |  | > 100 µM |  | > 100 µM |  | > 100 |
| COc1cc(/C=C/C(=O)c2cccc3ccccc23)cc(OC)c1OC |  | 10.6 |  | 24.4 µM |  | 4.31 |  |  |  | 19.1 µM |  | 27.5 |  | 7.93 µM |  |  |  | 23.8 µM |  |  |
| Cc1cc(F)c(C(=O)Nc2cccc(-c3nncn3C(C)C)n2)cc1-n1cnc(C2CC2)c1 | 14.2 | 62.6 | 10.4 | 27.7 µM | 16.2 | 45.3 | 20.7 | 95.6 |  |  | 19.9 | > 100 | 20.6 | 49.1 µM | 11.6 | 34.4 µM | 11.3 | 23.6 µM | 7.54 | 35.3 |
